The target in this experiment is Cathepsin S (Homo sapiens, UniProt P25774). Nature of the experiment: Cathepsin S inhibition, fluorogenic peptide substrate kinetic assay. Type of experiment: biochemical. Conditions: Table II; Cathepsin S inhibition constant, pH5.5; read-out: Ki Cat. S. A digest of the protocol: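 Ki values derive from apparent constants fitted to progress curves, corrected for competition with substrate via [S] and Km. Kinetics were monitored at 380 nm excitation/450 nm emission, after substrate addition (Ac-HPVK-ACC, 50 μM final) to start the reaction.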
Chain of Cathepsin S (P25774 115-331, species assumed): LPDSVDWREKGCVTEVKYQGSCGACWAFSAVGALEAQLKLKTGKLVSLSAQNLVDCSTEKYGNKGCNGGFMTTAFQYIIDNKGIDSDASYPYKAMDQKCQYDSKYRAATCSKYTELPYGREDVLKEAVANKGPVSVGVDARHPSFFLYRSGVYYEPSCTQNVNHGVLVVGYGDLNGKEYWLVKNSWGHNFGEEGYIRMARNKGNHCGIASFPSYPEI

In general, Ki refers to a measure of affinity in units of concentration, obtained from inhibition or displacement. For the compound `C[C@@H](CN1CCc2cc(F)ccc21)NC(=O)[C@H](CC1CCCCC1)NS(=O)(=O)c1cccc(OC(F)(F)F)c1` [Compound 254, (S,S)-3-Cyclohexyl-N-[2-(5-fluoro-2,3-dihydro-indol-1-yl)-1-methyl-ethyl]-2-(3-trifluoromethoxy-benzenesulfonylamino)-propionamide], the Ki was less than 100 nM.

`Cc1cccc(C(=O)N[C@@H](Cc2cccc(Cl)c2)C(=O)NCCN2CCc3cc(F)ccc32)c1` [Compound 197, N-((S)-1-(2-(5-fluoroindolin-1-yl)ethylcarbamoyl)-2-(3-chlorophenyl)ethyl)-3-methylbenzamide]: the Ki was less than 1000 nM. As to `C[C@@H](CNc1cccc(Cl)c1)NC(=O)[C@H](CC1CCCCC1)NC(=O)c1ccc(-c2cccc(F)c2)o1` [Compound 94, 5-(3-Fluoro-phenyl)-fuiran-2-carboxylic acid {1-(S)-[2-(3-chloro-phenylamino)-1-(S)-methyl-ethylcarbamoyl]-2-cyclohexyl-ethyl}-amide], the Ki is less than 100 nM. Then `COc1cccc(C(=O)N[C@@H](CCC2CCCCC2)C(=O)NCCN2CCc3cc(OC)ccc32)c1` [Compound 16, (S)-N-{3-Cyclohexyl-1-[2-(5-methoxy-2,3-dihydro-indol-1-yl)-ethylcarbamoyl]-propyl}-3-methoxy-benzamide], with less than 10000 nM; and `COc1cccc(C(=O)N[C@@H](CCC2CCCCC2)C(=O)NCCN2CCc3cccc(OC)c32)c1` [Compound 8, (S)-N-{3-Cyclohexyl-1-[2-(7-methoxy-2,3-dihydro-indol-1-yl)-ethylcarbamoyl]-propyl}-3-methoxy-benzamide], with less than 10000 nM; and `O=C(N[C@@H](CC1CCCCC1)C(=O)NCCN1CCc2cc(F)ccc21)C1CC(=O)N(Cc2ccco2)C1` (stereo partly drawn) [Compound 74, 1-Furan-2-ylmethyl-5-oxo-pyrrolidine-3-carboxylic acid (S)-{2-cyclohexyl-1-[2-(5-fluoro-2,3-dihydro-indol-1-yl)-ethylcarbamoyl]-ethyl}-amide], with less than 1000 nM. As for `Cc1cccc(C(=O)N[C@@H](Cc2ccccc2Cl)C(=O)NCCN2CCc3cc(F)ccc32)c1` [Compound 195, N-((S)-1-(2-(5-fluoroindolin-1-yl)ethylcarbamoyl)-2-(2-chlorophenyl)ethyl)-3-methylbenzamide], the Ki was less than 1000 nM. On to `CNS(=O)(=O)c1ccc(NC[C@H](C)NC(=O)[C@H](CC2CCCCC2)NC(=O)c2ccc(-c3cccc(F)c3)o2)cc1` [Compound 118, 5-(3-Fluoro-phenyl)-furan-2-carboxylic acid {2-cyclohexyl-1-(S)-[1-(S)-methyl-2-(4-methylsulfamoyl-phenylamino)-ethylcarbamoyl]-ethyl}-amide], for which the inhibition constant Ki was less than 100 nM. On to `O=C(NC(C(=O)N[C@@H](COCc1ccccc1)CN1CCc2cc(F)ccc21)c1ccc(Cl)cc1Cl)c1ccco1` (mixture of isomers) [Compound 207, N-(R,S)-((3-(benzyloxy)-1-(5-fluoroindolin-1-yl)propan-2-(R)-ylcarbamoyl)(2,4-dichlorophenyl)methyl)furan-2-carboxamide], for which the Ki was less than 100 nM. Consider `C[C@@H](CNc1ccc(OC(F)(F)F)cc1)NC(=O)[C@H](CC1CCCCC1)NC(=O)OC1CCS(=O)(=O)CC1` [Compound 186, (S,S)-{2-Cyclohexyl-1-[1-methyl-2-(4-trifluoromethoxy-phenylamino)-ethylcarbamoyl]-ethyl}-carbamic acid 1,1-dioxo-hexahydro-1λ^6-thiopyran-4-yl ester], for which the Ki is less than 100 nM. On to `COc1ccc(NC[C@H](C)NC(=O)[C@H](CC(C)(C)C)NC(=O)c2ccc(-c3cccc(F)c3)o2)cc1` [Compound 132, 5-(3-Fluoro-phenyl)-furan-2-carboxylic acid {1-(S)-[2-(4-methoxy-phenylamino)-1-(S)-methyl-ethylcarbamoyl]-3,3-dimethyl-butyl}-amide], for which the Ki was less than 100 nM. In the case of `CC[C@@H](C(=O)N[C@@H](CC1CCCCC1)C(=O)NCCN1CCc2cc(F)ccc21)c1ccccc1` [Compound 148, N-{2-cyclohexyl-1-(S)-[2-(5-fluoro-2,3-dihydro-indol-1-yl)-ethylcarbamoyl]-ethyl}-2-(R)-phenyl-butyramide], the Ki was less than 100 nM.

On to `COc1ccc(Oc2ccc(S(=O)(=O)N[C@@H](CC3CCCCC3)C(=O)NCCN3CCc4cc(F)ccc43)cc2)cc1` [Compound 244, (S)-3-Cyclohexyl-N-[2-(5-fluoro-2,3-dihydro-indol-1-yl)-ethyl]-2-[4-(4-methoxy-phenoxy)-benzenesulfonylamino]-propionamide], for which the Ki is less than 100 nM.

As for `C[C@@H](CNc1cc(Cl)ccc1F)NC(=O)[C@H](CC1CCCCC1)NC(=O)c1ccc(-c2cccc(F)c2)o1` [Compound 97, 5-(3-Fluoro-phenyl)-furan-2-carboxylic acid {1-(S)-[2-(5-chloro-2-fluoro-phenylamino)-1-(S)-methyl-ethylcarbamoyl]-2-cyclohexyl-ethyl}-amide], the Ki was less than 1000 nM. For `C[C@@H](CN1c2ccc(F)cc2CC1(C)C)NC(=O)[C@H](CC1CCCCC1)NC(=O)C1CCOCC1` [Compound 139, Tetrahydropyran-4-carboxylic acid {2-cyclohexyl-1-(S)-[2-(5-fluoro-2,2-dimethyl-2,3-dihydro-indol-1-yl)-1-(S)-methyl-ethylcarbamoyl]-ethyl}-amide], the inhibition constant (Ki) was less than 100 nM. Consider `O=C(N[C@@H](CC1CCCCC1)C(=O)NCCN1CCc2cc(F)ccc21)C1CCN(S(=O)(=O)c2ccccc2)CC1` [Compound 58, 1-Benzenesulfonyl-piperidine-4-carboxylic acid (S)-{2-cyclohexyl-1-[2-(5-fluoro-2,3-dihydro-indol-1-yl)-ethylcarbamoyl]-ethyl}-amide], for which the Ki is less than 1000 nM. With `COc1cccc(C(=O)N[C@@H](CCC2CCCCC2)C(=O)NCCN2CCc3c(OC)cccc32)c1` [Compound 15, (S)-N-{3-Cyclohexyl-1-[2-(4-methoxy-2,3-dihydro-indol-1-yl)-ethylcarbamoyl]-propyl}-3-methoxy-benzamide], the Ki was less than 10000 nM. Then `O=C(N[C@@H](Cc1ccc(Cl)cc1)C(=O)NCCN1CCc2cc(F)ccc21)c1ccc(-c2cccc(C(F)(F)F)c2)o1` [Compound 198, N-((S)-1-(2-(5-fluoroindolin-1-yl)ethylcarbamoyl)-2-(4-chlorophenyl)ethyl)-5-(3-(trifluoromethyl)phenyl)furan-2-carboxamide], with less than 1000 nM; and `Cc1occ(C(F)(F)F)c1S(=O)(=O)N[C@@H](CC1CCCCC1)C(=O)N[C@@H](C)CN1CCc2cc(F)ccc21` [Compound 253, (S,S)-3-Cyclohexyl-N-[2-(5-fluoro-2,3-dihydro-indol-1-yl)-1-methyl-ethyl]-2-(2-methyl-4-trifluoromethyl-furan-3-sulfonylamino)-propionamide], with less than 100 nM; and `CC(=O)N1CCC(Oc2ccc(C(=O)N[C@@H](CC3CCCCC3)C(=O)NCCN3CCc4cc(F)ccc43)cc2)CC1` [Compound 69, 4-(1-Acetyl-piperidin-4-yloxy)-N-(S)-{2-cyclohexyl-1-[2-(5-fluoro-2,3-dihydro-indol-1-yl)-ethylcarbamoyl]-ethyl}-benzamide], with less than 1000 nM.

Turning to `C[C@@H](CNc1ccc(OC(F)(F)F)cc1)NC(=O)[C@H](CC1CCCCC1)NC(=O)c1nnc(-c2cccc(F)c2)o1` [Compound 147, 5-(3-Fluoro-phenyl)-[1,3,4]oxadiazole-2-carboxylic acid {2-cyclohexyl-1-(S)-[1-(S)-methyl-2-(4-trifluoromethoxy-phenylamino)-ethylcarbamoyl]-ethyl}-amide], the Ki was less than 100 nM. Then `O=C(N[C@@H](CC1CCCCC1)C(=O)NCCN1CCc2cc(F)ccc21)c1csc(-c2ccccc2)n1` [Compound 76, 2-Phenyl-thiazole-4-carboxylic acid (S)-{2-cyclohexyl-1-[2-(5-fluoro-2,3-dihydro-indol-1-yl)-ethylcarbamoyl]-ethyl}-amide], with less than 100 nM; and `O=C(N[C@@H](CC1CCCCC1)C(=O)NCCN1CCc2cc(F)ccc21)C1CCN(S(=O)(=O)c2ccc(Cl)cc2)CC1` [Compound 17, 1-(4-Chloro-benzenesulfonyl)-piperidine-4-carboxylic acid (S)-{2-cyclohexyl-1-[2-(5-fluoro-2,3-dihydro-indol-1-yl)-ethylcarbamoyl]-ethyl}-amide], with less than 1000 nM. Next, `COc1ccc(NCC(C)NC(=O)C(CC2CCCCC2)NC(=O)c2cccc(OC)c2)cc1` [Compound 26, N-{2-Cyclohexyl-(1S)-[2-(4-methoxy-phenylamino)-(1R)-methyl-ethylcarbamoyl]-ethyl}-3-methoxy-benzamide]: less than 100 nM. On to `C[C@@H](CNc1ccc(OC(F)(F)F)cc1)NC(=O)[C@H](CC1CCCCC1)NC(=O)c1ccc(-c2cccnc2)o1` [Compound 143, 5-Pyridin-3-yl-furan-2-carboxylic acid {2-cyclohexyl-1-(S)-[1-(S)-methyl-2-(4-trifluoromethoxy-phenylamino)-ethylcarbamoyl]-ethyl}-amide], for which the Ki was less than 100 nM. For `C[C@@H](CNc1ccc(OC(F)(F)F)cc1)NC(=O)[C@H](CC1CCCCC1)NC(=O)O[C@@H]1CCNC1` [Compound 187, {2-Cyclohexyl-1-(S)-[1-(S)-methyl-2-(4-trifluoromethoxy-phenylamino)-ethylcarbamoyl]-ethyl}-carbamic acid pyrrolidin-3-(R)-yl ester], the Ki was less than 10000 nM. Next, `C[C@@H](CN1c2ccc(F)cc2CC1(C)C)NC(=O)[C@H](CC1CCCCC1)NC(=O)[C@H]1CCCO1` [Compound 274, Tetrahydrofuran-2-(R)-carboxylic acid {2-cyclohexyl-1-(S)-[2-(5-fluoro-2,2-dimethyl-2,3-dihydro-indol-1-yl)-1-(S)-methyl-ethylcarbamoyl]-ethyl}-amide]: less than 1000 nM.

In the case of `O=C(N[C@@H](CC1CCCCC1)C(=O)NCCN1CCc2cc(F)ccc21)c1ccoc1` [Compound 13, Furan-3-carboxylic acid (S)-{2-cyclohexyl-1-[2-(5-fluoro-2,3-dihydro-indol-1-yl)-ethylcarbamoyl]-ethyl}-amide], the Ki is less than 100 nM.

(Values after patent US20040248887A1, “Inhibitors of cathepsin S” (IRM LLC, priority 2003, published 2004).)
